Source: patent publication US20220196635A1, “Fibrosis Assay” (Georgia Tech Research Corporation, priority 2020, published 2022)

How the values were obtained:
[1] = tested on: normal human lung fibroblasts (NHLF); assay: Picrosirius red histology of contracted cell-ECM spheroids (mean fluorescence intensity); type: cell-based; conditions: different TGF-β1 conditions and control, 12 days of culture
Protocol: Contracted cell-ECM spheroids were harvested after 9-12 days of culture. These structures were prepared for histology, stained, and imaged as previously described for cultured spheroids. Briefly, the spheroids were washed with PBS and fixed in 4% paraformaldehyde (Alfa Aesar) for 1 hour at room temperature. The structures were stained with 0.5% methylene blue solution in PBS for 10 minutes at room temperature to aid in visualization during histology. Samples were placed in a cryomold containing optimal cutting temperature (OCT) compound, and flash frozen in cooled isopentane. 10 um sections were obtained using a CryoStar NX70 cryostat (Thermo Fisher Scientific).
Upon warming to room temperature, the sections were washed with PBS, permeabilized with 0.2% Triton-X 100, and blocked for 1 hour at room temperature with 4% bovine serum albumin (BSA) (Millipore Sigma). Sections were stained for 30 min at room temperature with Sirius red (0.1% of Sirius red in saturated aqueous picric acid), as previously described for collagen bundle staining. The samples were then washed with PBS, stained with DAPI for 15 minutes at room temperature, and coverslipped. […] Fluorescence was detected using Texas Red channel settings as previously described. Mean fluorescence intensity was quantified in ImageJ as the average pixel intensity within the sections.

[2] = tested on: NHLF cells and diseased IPF cells (primary human lung fibroblasts) in fibrin scaffold; assay: Microscale cell-mediated fibrinolysis assay (ATPS-printed fibroblast-laden fibrin scaffolds, brightfield pixel intensity); type: cell-based; conditions: NHLF cells
Protocol: A stock solution of DEX (20% w/w dextran T500; Sigma) was prepared in phosphate buffered saline (PBS) on a rocker overnight. A stock solution of PEG (6% w/w, 35 k MW; Sigma) was prepared in fully supplemented culture media with 10% deionized water to balance osmolality. Both stock solutions were passed through a 0.22 um sterilizing syringe filter before storage. PEG working solutions were stored for up to 2 weeks at 4° C. Thrombin (Human Alpha Thrombin; Enzyme Research Labs) was also added to the PEG solution at a concentration of 0.1 U/mL immediately preceding experiments. Fibrinogen-DEX solutions were prepared by diluting fibrinogen stock solution (human fibrinogen 3; Enzyme Research Labs) to a final concentration of 4 mg/mL in a sterile solution of 4% 10×DMEM, 15% DEX stock solution (to a final concentration of 3% dextran), and 50% cell suspension in growth media. For all experiments excluding cell concentration evaluation, the cell suspension was diluted for 1000 cells per microliter in the final fibrinogen-DEX solution.
Normal human lung fibroblasts (NHLF lot #0000580583; […] Cells were passaged at 80-90% confluence and were sub-cultured in 1:3 ratios by trypsinization. When at the desired confluence, cells were washed with PBS and 0.05% trypsin solution was added to the flask. Cells were incubated for 2 min, diluted with fibroblast growth media, and then harvested and centrifuged (200× g, 5 min) in a conical tube. The supernatant was aspirated and the cell pellet was re-suspended in serum-free culture media. When used in fibrin degradation experiments, cells were re-suspended at 2× the final desired concentration (1000 cells/ul unless otherwise indicated). All experiments were conducted with cells at or below passage 12. In all experiments, media was changed every 48 hours and any media additives (plasminogen, TGF-β1, drugs, etc.) were included.
Working solutions of PEG with 0.1 U/mL of thrombin were warmed to 37° C. and pipetted into a 96-well plate. For production of droplets, fibrinogen-DEX solutions with cell suspension were maintained at 37° C. and pipetted directly into the PEG-thrombin media using either a manual pipette or a semi-automated 96-channel pipette (Viaflo-96; Integra). All assays utilized a volume of 1 μl unless otherwise noted. Following dispensing of the DEX phase, the plates were placed in an incubator at 37° C. for 30 min to allow the thrombin to enzymatically crosslink the fibrinogen into a fibrin matrix (FIG. 1A). The PEG-enriched media was then washed four times by removing, then replacing half of the media with PEG-free media. When applicable, the final media addition was supplemented with stimuli as detailed in Example 5 below. For the duration of each experiment, assay plates were imaged every 2 hours at 4× with an automated cell culture monitoring system (Incucyte S3; Essen Biosystems). After one day of culture, plasminogen (50 μg/mL) (Human Glu-Plasminogen; Enzyme Research Labs) was added as a 10× concentrated solution to each well in order to initiate assay degradation (FIG. 1B), unless otherwise noted for specific conditions. Fresh plasminogen was included with each subsequent media addition. Positive controls with active plasmin (1 U/ml) (Human Plasmin; Enzyme Research Labs) and negative controls without plasminogen were included in each experiment. As cells activated plasminogen, the fibrin scaffold progressively degraded as illustrated in FIG. 1C.
After each experiment, brightfield images for every time point were downloaded in jpeg format from the automated cell culture monitoring system. Python's OpenCV library was implemented for the masking approach illustrated in FIG. 2A. First, a threshold was set at 50% of the maximum intensity (128 for 8-bit integer pixel values) in order to isolate the darker pixels of semi-opaque fibrin hydrogel from the background of the image. A closing morphological filter with a 25×25 kernel was then applied to each mask in order to remove noise. […]

Substance: TGF-β1: Human Recombinant TGF-β1 (Peprotech), pro-fibrotic, anti-fibrinolytic stimulus
- mean fluorescence intensity (MFI) of picrosirius red stained sections, collagen organization [1]: relative consistency in organization of collagen networks
- maximum slope of fibrin degradation ([2]; higher concentrations of TGF-β1): no significant changes in slope
- 50% degradation time / delay before fibrinolysis ([2]; various concentrations of TGF-β1): longer time delays before fibrinolysis
